Results from patent publication US20260130894A1, “COMPOSITION COMPRISING ISOQUINOLINE DERIVATIVE AS ACTIVE INGREDIENT FOR PREVENTION OR TREATMENT OF PARKINSON'S DISEASE” (ALTMEDICAL CO., LTD., priority 2022, published 2026).

Legend:
[1] = test system: mitochondrial membrane potential; assay: Mitochondrial membrane potential, TMRM assay; assay type: cell-based; details: CD1-012 10 μM or 15 μM, CCCP 10 μM, 24 hours (FIG. 6)
Experimental: It was confirmed whether the isoquinoline derivative according to the present invention induces mitochondrial dysfunction, similar to CCCP. To this end, the CD1-012 (10 μM or 15 μM) and CCCP (10 μM) were treated for 24 hours, and the mitochondrial membrane potential and mitochondrial reactive oxygen species (ROS) levels in each sample were analyzed. Mitochondrial membrane potential was analyzed using the TMRM (tetramethylrhodamine methyl ester) assay, and mitochondrial ROS levels were analyzed using the MitoSOX assay.

PINK1-deficient MEFs = assay: Mitochondrial function in PINK1-deficient MEFs (TMRM, MitoSOX-Red, ATP production); assay type: cell-based, mouse; details: 40 μM for 24 hours
Experimental: Subsequently, PINK1-deficient MEFs were treated with CD1-012 at a concentration of 40 μM for 24 hours, and 4 days later, mitochondrial function as analyzed. The mitochondrial membrane potential was analyzed by the tetramethyl rhodamine methyl ester (TMRM) assay, and mitochondrial ROS was analyzed using the MitoSOX-Red assay. […] Conversely, the level of mitochondrial ROS, which was elevated compared to the wild-type cells, was reduced by CD1-012 treatment (FIG. 8D).

BEAS-2B cell line = assay: Mitophagy activity in BEAS-2B cells expressing mt-Keima (FACS, confocal microscope, mito-YFP); assay type: cell-based, human
Experimental: To analyze the mitophagy-promoting activity effect of the CD1-012 synthesized in the Example 1, the BEAS-2B cell line, which is a human normal lung cell line, was induced to express the mt-Keima fluorescent protein. Following this, the CD1-012 (15 μM) and the compound of Comparative Example 1, CCCP (10 μM), were treated for 24 hours. After the treatment, the mitophagy activity of each sample was measured, and the results were represented in FIGS. 1A to 1C.
Specifically, FIG. 1A represents the analysis results using flow cytometry (FACS) (treatment of CD1-012 at 15 μM for 24 hours), FIG. 1B represents the analysis results using a confocal microscope (treatment of CD1-012 at 15 μM for 18 hours), and FIG. 1C represents the measurement results of the quantitative changes in the mitochondria using a fluorescent protein, mito-YFP, which includes a targeting sequence to transport protein to the mitochondria (treatment of CD1-012 at 20 μM for 24 hours).
It was confirmed whether CD1-012 synthesized in Example 1 promotes mitophagy activity in a concentration- and time-dependent manner. To this end, the CD1-012 was treated at various concentrations or at a fixed concentration (15 μM) for different treatment durations in the BEAS-2B cell line expressing mt-Keima, and mitophagy activity was measured using a flow cytometer.
It was confirmed whether CD1-012 synthesized in Example 1 specifically increases only mitophagy activity. To this end, the BEAS-2B cell line expressing mt-Keima was treated with CD1-012 (15 μM) or Comparative Example 1 (CCCP, 10 μM) for 18 hours, and mitophagy activity was analyzed using a confocal microscope. Additionally, to measure autophagy activity, the BEAS-2B cell line expressing Keima fluorescent protein was incubated in Hanks' balanced salt solution (HBSS) for 3 hours to induce a starvation condition (starv.), and the results were compared with samples treated with CD1-012 (15 μM) for 18 hours using a confocal microscope.
To this end, the human normal lung cell line BEAS-2B, expressing mt-Keima fluorescent protein, was treated with CD1-012, Comparative Example 2 (palmatine), or Comparative Example 3 (berberine) at various concentrations, and the mitophagy-inducing activity of each sample was compared.

[2] = test system: mouse model of Parkinson's disease established by injecting MPTP; assay: Motor performance (pole test, Rota-rod test) in MPTP mouse model of Parkinson's disease; assay type: in vivo
Experimental: In this example, the effect of the compound of the present invention (CD1-012) on treating Parkinson's disease was confirmed using a mouse model of Parkinson's disease. To this end, a mouse model of Parkinson's disease established by injecting the neurotoxin, 1-methyl-4-phenyl-1,2,3,6-tetrahydropyridine (MPTP), was used. After nasal administration of CD1-012 at a concentration of 1 mg/kg daily for 2 weeks to the mouse model, motor performance was analyzed using the pole test and Rota-rod test (FIG. 11A).

Oc1cc2c(cc1O)-c1cc3ccc(O)c(O)c3c[n+]1CC2 [CD1-012, 2,3,9,10-tetrahydroxy-5,6-dihydroisoquinolino[3,2-a]isoquinolin-7-ium bromide]
mitochondrial membrane potential [1]: no decrease in mitochondrial membrane potential was observed
mitochondrial ATP production (reduced in PINK1-deficient cells) (PINK1-deficient MEFs; analyzed 4 days later (FIG. 8E)): restored
level of mitochondrial ROS (elevated in PINK1-deficient cells) (PINK1-deficient MEFs; analyzed 4 days later, MitoSOX-Red (FIG. 8D)): reduced
mitochondrial membrane potential (decreased in PINK1-deficient cells) (PINK1-deficient MEFs; analyzed 4 days later, TMRM (FIG. 8C)): restored
treatment time after which mitophagy activity began to significantly increase (BEAS-2B cell line; 15 μM (FIG. 3B)): 3 h
treatment time at which mitophagy activity reached its maximum level (BEAS-2B cell line; 15 μM (FIG. 3B)): 18 h
concentration at which mitophagy activity reached a level comparable to the maximum of palmatine and berberine (BEAS-2B cell line; BEAS-2B mt-Keima (FIG. 5)): 10 µM
mitophagy-inducing activity relative to berberine (BEAS-2B cell line; BEAS-2B mt-Keima (FIG. 5)): approximately 8 times
mitophagy-inducing activity relative to palmatine (BEAS-2B cell line; BEAS-2B mt-Keima (FIG. 5)): approximately 40 times
concentration at which mitophagy activity began to significantly increase compared to untreated control (BEAS-2B cell line; BEAS-2B mt-Keima, flow cytometer (FIG. 3A)): ≥ 7.5 µM
mitophagy activity compared to the untreated control group (Con) (BEAS-2B cell line; BEAS-2B mt-Keima, 15 μM 24 h (FACS), 15 μM 18 h (confocal), 20 μM 24 h (mito-YFP)): significant increase in mitophagy activity
mitophagy-promoting effect compared with CCCP (confocal microscope) (BEAS-2B cell line; CD1-012 15 μM, CCCP 10 μM, 18 hours (FIG. 4A)): mitophagy-promoting effects similar to those observed in the CCCP-treated sample
mitophagy activity compared with CCCP-treated sample (FIG. 1A) (BEAS-2B cell line; FACS, CD1-012 15 μM, CCCP 10 μM, 24 hours): increased as significantly as that of the sample treated with the representative mitophagy promoting compound, CCCP
concentration dependence of mitophagy activity (BEAS-2B cell line; up to the maximum treatment concentration of 17.5 μM (FIG. 3A)): continued to increase in a concentration-dependent manner
pole test, motor performance (time to reach the ground) ([2]; MPTP mice, nasal 1 mg/kg daily for 2 weeks (FIG. 11B)): recovered to a level equivalent to that of the normal control
Rota-rod test, time spent on the cylinder ([2]; MPTP mice, nasal 1 mg/kg daily for 2 weeks (FIG. 11C)): markedly recovered
motor performance of normal mice administered CD1-012 alone compared to untreated normal control (toxicity) ([2]; normal mice, CD1-012 alone): no significant difference in motor performance
